Twelve compounds from US20070281046A1, “Method for removing organic contaminants from Chinese herb medicines” (Committee on Chinese Medicine and Pharmacy, Department of …, priority 2006, published 2007) can be followed below.

The nature of series [1]: Degradation of nine organochlorine pesticides by gamma irradiation in samples of P. quinquefolium (GC analysis). The note with it: for remaining concentration of organochlorine pesticides in samples: P. quinquefolium samples, mean of three; for proportion of pesticide degraded: gamma irradiation of P. quinquefolium samples, dose not stated in the sentence (matches 25 kGy of Table 1). In kind it is physicochemical. The text has this: The nine organochlorine pesticides that included Aldrin, Lindane, Heptachlor, Endosulfan-1, Endosulfan-2, o,p′-DDD), p,p′-DDD, p,p′-DDE, and p,p′-DDT were simultaneously prepared in a n-hexane solution. Subsequently, the n-hexane solution that contained the aforesaid organochlorine pesticides was evenly sprayed into samples of P. quinquefolium; the concentration of each of the nine organochlorine pesticides contained in the samples was approximately 0.5 ppm. The samples were cut into pieces with scissors, and then divided into separate packs that weighed 10 g, respectively; the packs were subjected to gamma irradiation of different dosages ranging from 0, 5, 10, 15, 20, and 25 kGy, and followed by the analysis of concentration of the aforesaid organochlorine pesticides. […] Solution was extracted from the samples by using 70% aqueous acetone, and then the extracted solution was subjected to filtration, a decrease in pressure, and condensation in order to remove acetone, followed by the addition of hydrochloric acid and n-hexane to bring the extracted solution to 100 ml, so that the organochlorine pesticides were distributed to the organic layer. Consequently, magnesium silicate was added into the resulted solution in order to depigment and purify it, and once the solution has undergone a decrease in pressure and condensation again for drying, it was brought to 5 ml by adding n-hexane solution to prepare it for gas chromatography (GC) analysis. After undergoing centrifugation, 2 μl of the resulted solution was taken for GC analysis to find out the respective concentration of each of the aforesaid organochlorine pesticides remaining in the samples after receiving various dosages of gamma irradiation.

A short description of series [2]: Concentration of marker components (ginsenosides) in P. quinquefolium samples after gamma irradiation (HPLC). In kind it is physicochemical. Particulars: for concentration of marker components of P. quinquefolium (ginsenoside): mean ± SD, three repeats; for effect of gamma irradiation on concentration of marker components: 10 kGy and 15 kGy gamma irradiation, P. quinquefolium samples. On the procedure:
Samples of P. quinquefolium that have respectively received gamma irradiation in dosages of 0, 10, 15, and 20 kGy were analyzed to find out the concentration of marker components therein, with the samples that have not received gamma irradiation as the control group. To extract marker components from the samples for analysis, 10 g of the samples were taken and prepared in 50 ml of 70% aqueous methanol solution, and heated in a convection heater at 60° C. for 15 minutes, followed by centrifugation in order to obtain the extract solution. Subsequently, the residual of the samples were subjected to the above-mentioned procedure again, and the extracted solution from the two rounds of procedures were mixed together and filtered, followed by the addition of 70% aqueous methanol solution to bring the volume up to 100 ml; the resulted solution was then stored at −20° C. and analyzed within 3 days. Before carrying out the analysis of ingredients, an adequate amount of the resulted solution was underwent filtration through a 0.22 μm pore size membrane, and then 20 μl of the solution was injected into a high performance liquid chromatographer for analysis (HPLC, Waters model 2695) each time; the analyses were carried out in combination with UV light—Visible light sensor of Waters model 2487, and a silicon-based reverse phase C-18 column (Cosmosil 5C18-MS-II, 5 μm, 4.6×250 mm, Nacalai Tesque, Inc., Kyoto, Japan) was used for analyzing the marker components of P. quinquefolium in the solution. The marker components of P. quinquefolium tested in the experiment included ginsenoside Rb1, ginsenoside Rg1, ginsenoside Rc, ginsenoside Rd, and ginsenoside Re; the detection wavelength of UV light was 203 ηm. The solution of 15% aqueous phosphoric acid (H3PO4)—acetonitrile (CH3CN) (81:19 to 60:40) was used as the moving phase, and the moving phase was analyzed at 25° C. and 1.0 ml/min of flow velocity after being filtered with a 0.45 μm filtration membrane, so as to measure the concentration of the marker components in samples of P. quinquefolium that received various dosages of gamma irradiation.

Where [3] appears, read: 0 kGy gamma irradiation (control group).

Marks after values point to notes of the source that are not given here.

For the compound `ClC1=C(Cl)C2(Cl)C3C4C=CC(C4)C3C1(Cl)C2(Cl)Cl` (centres unmarked) [Aldrin], the “remaining concentration of organochlorine pesticides in samples” value (“remaining concentration” for short) is reported as 0.532^a) ppm in series [1] (setting [3]); 0.376 ppm in series [1] (5 kGy gamma irradiation); 0.279 ppm in series [1] (10 kGy gamma irradiation); 0.218 ppm in series [1] (15 kGy gamma irradiation); 0.168 ppm in series [1] (20 kGy gamma irradiation); 0.123 ppm in series [1] (25 kGy gamma irradiation).

For `O=S1OC[C@@H]2[C@H](CO1)[C@@]1(Cl)C(Cl)=C(Cl)[C@]2(Cl)C1(Cl)Cl` (some centres unmarked) [Endosulfan-1], the “remaining concentration” value in series [1] (setting [3]) came to 0.519 ppm; in series [1] (5 kGy gamma irradiation), 0.392 ppm; in series [1] (10 kGy gamma irradiation), 0.311 ppm; in series [1] (15 kGy gamma irradiation), 0.251 ppm; in series [1] (20 kGy gamma irradiation), 0.192 ppm; in series [1] (25 kGy gamma irradiation), 0.140 ppm.

Take `O=S1OC[C@@H]2[C@H](CO1)[C@]1(Cl)C(Cl)=C(Cl)[C@]2(Cl)C1(Cl)Cl` (some centres unmarked) [Endosulfan-2]: the “remaining concentration” value is reported as 0.515 ppm in series [1] (setting [3]); 0.359 ppm in series [1] (5 kGy gamma irradiation); 0.263 ppm in series [1] (10 kGy gamma irradiation); 0.198 ppm in series [1] (15 kGy gamma irradiation); 0.144 ppm in series [1] (20 kGy gamma irradiation); 0.093 ppm in series [1] (25 kGy gamma irradiation).

Turning to `ClC1=C(Cl)C2(Cl)C3C(Cl)C=CC3C1(Cl)C2(Cl)Cl` (centres unmarked) [Heptachlor], the “remaining concentration” value in series [1] (setting [3]) was determined as 0.532 ppm; in series [1] (5 kGy gamma irradiation), 0.421 ppm; in series [1] (10 kGy gamma irradiation), 0.319 ppm; in series [1] (15 kGy gamma irradiation) it was 0.254 ppm; in series [1] (20 kGy gamma irradiation) it was 0.195 ppm; in series [1] (25 kGy gamma irradiation), 0.142 ppm.

Take `Cl[C@H]1[C@H](Cl)[C@@H](Cl)[C@@H](Cl)[C@H](Cl)[C@H]1Cl` [Lindane]: the “remaining concentration” value turned out to be 0.549 ppm in series [1] (setting [3]); 0.383 ppm in series [1] (5 kGy gamma irradiation); 0.278 ppm in series [1] (10 kGy gamma irradiation); 0.206 ppm in series [1] (15 kGy gamma irradiation); 0.147 ppm in series [1] (20 kGy gamma irradiation); 0.089 ppm in series [1] (25 kGy gamma irradiation). Further, the “proportion of pesticide degraded” value in series [1] is on record as 84%.

Consider `CC(C)=CCC[C@](C)(O[C@@H]1O[C@H](CO[C@@H]2O[C@H](CO)[C@@H](O)[C@H](O)[C@H]2O)[C@@H](O)[C@H](O)[C@H]1O)[C@H]1CC[C@]2(C)[C@@H]1[C@H](O)C[C@@H]1[C@@]3(C)CC[C@H](O[C@@H]4O[C@H](CO)[C@@H](O)[C@H](O)[C@H]4O[C@@H]4O[C@H](CO)[C@@H](O)[C@H](O)[C@H]4O)C(C)(C)[C@@H]3CC[C@]12C` [Rb1, ginsenoside Rb1], for which the “concentration of marker components of P. quinquefolium (ginsenoside)” value in series [2] (setting [3]) is recorded as 31.37 ± 0.15^a) mg/g; in series [2] (10 kGy gamma irradiation) it was 31.01 ± 0.11 mg/g; in series [2] (15 kGy gamma irradiation), 30.59 ± 0.63 mg/g; in series [2] (20 kGy gamma irradiation) it was 29.39 ± 0.36 mg/g. Further, the “effect of gamma irradiation on concentration of marker components” value (from here on “effect of gamma irradiation”) in series [2] is on record as “would not affect”.

On to `CC(C)=CCC[C@](C)(O[C@@H]1O[C@H](CO[C@@H]2O[C@@H](CO)[C@H](O)[C@H]2O)[C@@H](O)[C@H](O)[C@H]1O)[C@H]1CC[C@]2(C)[C@@H]1[C@H](O)C[C@@H]1[C@@]3(C)CC[C@H](O[C@@H]4O[C@H](CO)[C@@H](O)[C@H](O)[C@H]4O[C@@H]4O[C@H](CO)[C@@H](O)[C@H](O)[C@H]4O)C(C)(C)[C@@H]3CC[C@]12C` [Rc, ginsenoside Rc], for which the “concentration of marker components of P. quinquefolium (ginsenoside)” value was 16.12 ± 0.47 mg/g in series [2] (setting [3]), 15.91 ± 0.43 mg/g in series [2] (10 kGy gamma irradiation), 15.08 ± 0.27 mg/g in series [2] (15 kGy gamma irradiation) and 14.46 ± 0.28 mg/g in series [2] (20 kGy gamma irradiation). Besides, in series [2], the “effect of gamma irradiation” value was “would not affect”.

Consider `CC(C)=CCC[C@](C)(O[C@@H]1O[C@H](CO)[C@@H](O)[C@H](O)[C@H]1O)[C@H]1CC[C@]2(C)[C@@H]1[C@H](O)C[C@@H]1[C@@]3(C)CC[C@H](O[C@@H]4O[C@H](CO)[C@@H](O)[C@H](O)[C@H]4O[C@@H]4O[C@H](CO)[C@@H](O)[C@H](O)[C@H]4O)C(C)(C)[C@@H]3CC[C@]12C` [Rd, ginsenoside Rd], for which the “concentration of marker components of P. quinquefolium (ginsenoside)” value in series [2] (setting [3]) amounted to 9.02 ± 0.32 mg/g; in series [2] (10 kGy gamma irradiation), 8.77 ± 0.15 mg/g; in series [2] (15 kGy gamma irradiation), 8.44 ± 0.25 mg/g; in series [2] (20 kGy gamma irradiation), 8.20 ± 0.17 mg/g. The “effect of gamma irradiation” value in series [2] was “would not affect”.

For the compound `Clc1ccc(C(c2ccccc2Cl)C(Cl)Cl)cc1` (centres unmarked) [o,p′-DDD], the “remaining concentration” value in series [1] (setting [3]) was 0.476 ppm; in series [1] (5 kGy gamma irradiation), 0.337 ppm; in series [1] (10 kGy gamma irradiation), 0.250 ppm; in series [1] (15 kGy gamma irradiation), 0.196 ppm; in series [1] (20 kGy gamma irradiation), 0.155 ppm; in series [1] (25 kGy gamma irradiation) it was 0.119 ppm.

In the case of `Clc1ccc(C(c2ccc(Cl)cc2)C(Cl)Cl)cc1` [p,p′-DDD], the “remaining concentration” value in series [1] (setting [3]) was 0.502 ppm; in series [1] (5 kGy gamma irradiation) it was 0.370 ppm; in series [1] (10 kGy gamma irradiation), 0.282 ppm; in series [1] (15 kGy gamma irradiation), 0.227 ppm; in series [1] (20 kGy gamma irradiation) it was 0.179 ppm; in series [1] (25 kGy gamma irradiation), 0.147 ppm.

For `ClC(Cl)=C(c1ccc(Cl)cc1)c1ccc(Cl)cc1` [p,p′-DDE], the “remaining concentration” value in series [1] (setting [3]) amounted to 0.544 ppm; in series [1] (5 kGy gamma irradiation) it was 0.404 ppm; in series [1] (10 kGy gamma irradiation), 0.313 ppm; in series [1] (15 kGy gamma irradiation), 0.249 ppm; in series [1] (20 kGy gamma irradiation), 0.195 ppm; in series [1] (25 kGy gamma irradiation) it was 0.145 ppm.

As for `Clc1ccc(C(c2ccc(Cl)cc2)C(Cl)(Cl)Cl)cc1` [p,p′-DDT], the “remaining concentration” value in series [1] (setting [3]) is on record as 0.520 ppm; in series [1] (5 kGy gamma irradiation) it was 0.344 ppm; in series [1] (10 kGy gamma irradiation), 0.242 ppm; in series [1] (15 kGy gamma irradiation), 0.178 ppm; in series [1] (20 kGy gamma irradiation) it was 0.127 ppm; in series [1] (25 kGy gamma irradiation) it was 0.082 ppm. Besides, the “proportion of pesticide degraded” value in series [1] turned out to be 84%.
